≈ marks a conversion by molar mass, not a printed value.

The values below come from publication PMC6268315, “Investigating the Spectrum of Biological Activity of Substituted Quinoline-2-Carboxamides and Their Isosteres ^†” (Molecules, 2012).

In the assay the test system is Mycobacterium tuberculosis CUH071. The assay is described as follows: In vitro antimycobacterial evaluation (alamarBlue). In kind it is cell-based. Conditions: 168 h, clinical isolate CUH071 with partial INH and PZA resistance, 7 days, read-out: MIC/IC90 M. tuberculosis. Background: The colour change of resazurin is a common sign of viable cells or microbes.

With `CC(C)NC(=O)c1ccc2ccccc2n1` [Compound 1, N-Isopropylquinoline-2-carboxamide], the MIC amounted to 280 µM (≈ 60 µg/mL).

Consider `CCCCCCCCCCCCNC(=O)c1ccc2ccccc2n1` [Compound 2, N-Dodecylquinoline-2-carboxamide], for which the MIC came out at 367 µM (≈ 125 µg/mL).

Turning to `O=C(c1ccc2ccccc2n1)N1CCCC1` [Compound 3, 2-(Pyrrolidin-1-ylcarbonyl)quinoline], the MIC was found to be 552 µM (≈ 125 µg/mL).

As for `O=C(NC1CCCC1)c1ccc2ccccc2n1` [Compound 5, N-Cyclopentylquinoline-2-carboxamide], the MIC was determined as 491 µM (≈ 118 µg/mL).

For `O=C(NC1CCCCC1)c1ccc2ccccc2n1` [Compound 6, N-Cyclohexylquinoline-2-carboxamide], the MIC came out at 125 µM (≈ 31.8 µg/mL).

For the compound `O=C(NC1CCCCCC1)c1ccc2ccccc2n1` [Compound 7, N-Cycloheptylquinoline-2-carboxamide], the MIC came to 111 µM (≈ 29.8 µg/mL).

With `O=C(NCCc1ccccc1)c1ccc2ccccc2n1` [Compound 11, N-(2-Phenylethyl)quinoline-2-carboxamide], the MIC was 109 µM (≈ 30.1 µg/mL).

As to `Cc1cccc(NC(=O)c2ccc3ccccc3n2)c1` [Compound 14b, N-(3-Methylphenyl)quinoline-2-carboxamide], the MIC amounted to 469 µM (≈ 123 µg/mL).

With `O=C(c1ccc2ccccc2c1)N1CCCC1` [Compound 22, 1-(2-Naphthoyl)pyrrolidine], the MIC stood at 554 µM (≈ 125 µg/mL).

Regarding `COc1ccccc1NC(=O)c1ccc2ccccc2c1` [Compound 32a, N-(2-Methoxyphenyl)-2-naphthamide], the MIC turned out to be 901 µM (≈ 250 µg/mL).

On to `NNC(=O)c1ccncc1` [INH, isoniazid, reference compound], for which the MIC is above 729 µM.

As to `NC(=O)c1cnccn1` [PZA, pyrazinamide, reference compound], the MIC is above 812 µM.
